Patent US20240368123A1, “AROMATIC RING-CONTAINING BIOLOGICAL ANTAGONIST, AND PREPARATION METHOD THEREFOR AND USE THEREOF” (SHANGHAI HANSOH BIOMEDICAL CO., LTD., priority 2021, published 2024)

Legend:
Type in all cases: in vitro ADME
Settings in all cases: human liver microsomes, single point method
[1] = target: T1, CYP450 enzyme subtype 3A4-M (Homo sapiens, UniProt P08684); test: CYP enzyme single point inhibition test, 3A4-M
T1 construct: Human liver microsome incubation system was used; from tissue; host or cells: human liver microsomes
Description: (§1) Human liver microsome incubation system was used, and the single point method was used to quickly predict the inhibition on CYP450 enzyme subtypes (1A2, 2C19, 2D6, 3A4-M, and 3A4-T) by compounds.
(§2) For 2.5 mM NADPH, 4.165 mg of NADPH (reduced nicotinamide adenine dinucleotide phosphate) was weighed and 100 mM phosphate buffer was added to 2 mL. For 0.25 mg/mL microsomes, 50 μL of 20 mg/mL microsomes was added to 4 mL of 100 mM phosphate buffer and mixed evenly.
(§3) The test example compound was weighed, diluted to 10 mM with DMSO, and then diluted to 100 μM with 100 mM phosphate buffer.
(§4) • 1. 40 μL of liver microsomes, 10 μL of substrate, and 10 μL of test compound were added in a 96-well plate and the mixture was pre-incubated for 3 min. • 2. 40 μL of NADPH was added. • 3. At 20 min, 300 μL of acetonitrile stop solution containing internal standard was added. • 4. The mixture was centrifuged and the sample was loaded.

[2] = target: T2, CYP450 enzyme subtype 1A2 (Homo sapiens, UniProt P05177); test: CYP enzyme single point inhibition test, 1A2
T2 construct: Human liver microsome incubation system was used; from tissue; host or cells: human liver microsomes
T2 sequence (P05177 1-516): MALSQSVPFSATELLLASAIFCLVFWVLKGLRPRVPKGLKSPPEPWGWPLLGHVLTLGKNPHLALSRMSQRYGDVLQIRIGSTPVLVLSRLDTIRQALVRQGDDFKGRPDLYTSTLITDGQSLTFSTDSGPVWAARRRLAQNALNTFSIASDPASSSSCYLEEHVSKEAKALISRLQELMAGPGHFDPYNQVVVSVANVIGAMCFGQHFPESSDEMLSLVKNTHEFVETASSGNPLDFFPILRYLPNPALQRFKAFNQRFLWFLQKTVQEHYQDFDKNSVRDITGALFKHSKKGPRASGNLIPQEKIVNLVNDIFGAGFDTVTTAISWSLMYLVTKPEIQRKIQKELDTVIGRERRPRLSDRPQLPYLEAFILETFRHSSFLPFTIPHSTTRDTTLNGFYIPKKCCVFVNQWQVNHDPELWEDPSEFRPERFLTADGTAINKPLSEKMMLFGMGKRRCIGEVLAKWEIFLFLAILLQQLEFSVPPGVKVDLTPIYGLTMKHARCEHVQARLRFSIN
Description: as §1, §2, §3, §4

[3] = target: T3, CYP450 enzyme subtype 2D6 (Homo sapiens, UniProt P10635); test: CYP enzyme single point inhibition test, 2D6
T3 construct: Human liver microsome incubation system was used; from tissue; host or cells: human liver microsomes
Description: as §1, §2, §3, §4

[4] = target: T4, CYP450 enzyme subtype 3A4-T (Homo sapiens, UniProt P08684); test: CYP enzyme single point inhibition test, 3A4-T
T4 construct: Human liver microsome incubation system was used; from tissue; host or cells: human liver microsomes
Description: as §1, §2, §3, §4

T4 sequence (P08684 whole entry): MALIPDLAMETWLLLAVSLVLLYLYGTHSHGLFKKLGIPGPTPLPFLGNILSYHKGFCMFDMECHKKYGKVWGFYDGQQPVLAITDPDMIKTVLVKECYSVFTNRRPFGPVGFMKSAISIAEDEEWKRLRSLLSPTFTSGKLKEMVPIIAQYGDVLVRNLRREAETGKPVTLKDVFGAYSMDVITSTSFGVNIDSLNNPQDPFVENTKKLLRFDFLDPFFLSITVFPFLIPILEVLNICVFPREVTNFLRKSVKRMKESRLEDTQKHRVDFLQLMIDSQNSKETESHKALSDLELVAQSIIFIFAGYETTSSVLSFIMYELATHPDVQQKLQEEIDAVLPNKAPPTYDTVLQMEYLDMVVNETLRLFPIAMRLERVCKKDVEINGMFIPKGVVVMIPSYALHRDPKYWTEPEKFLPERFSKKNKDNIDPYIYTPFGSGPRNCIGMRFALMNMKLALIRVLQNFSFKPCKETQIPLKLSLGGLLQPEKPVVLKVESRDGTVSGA
T1 sequence (P08684 whole entry): as above
T3 sequence (P10635 whole entry): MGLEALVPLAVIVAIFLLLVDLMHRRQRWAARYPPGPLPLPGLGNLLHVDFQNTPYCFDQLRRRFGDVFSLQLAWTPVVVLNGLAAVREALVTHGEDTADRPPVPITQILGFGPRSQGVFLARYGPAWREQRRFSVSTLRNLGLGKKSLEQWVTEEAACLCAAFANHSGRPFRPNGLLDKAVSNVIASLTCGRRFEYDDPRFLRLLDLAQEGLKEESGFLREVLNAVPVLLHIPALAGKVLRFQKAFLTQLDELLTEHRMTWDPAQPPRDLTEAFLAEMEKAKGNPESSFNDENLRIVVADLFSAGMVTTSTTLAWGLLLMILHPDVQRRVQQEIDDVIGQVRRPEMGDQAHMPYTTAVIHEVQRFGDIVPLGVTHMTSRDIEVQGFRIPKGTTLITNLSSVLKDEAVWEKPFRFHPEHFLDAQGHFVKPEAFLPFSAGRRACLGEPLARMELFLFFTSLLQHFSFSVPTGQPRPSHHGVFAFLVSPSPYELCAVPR

SMILES: CCCCC1=NC2(CCCC2)C(=O)N1Cc1ccc(-c2ccccc2S(=O)(=O)Nc2noc(C)c2Br)c(COCC)c1 [Example 46, 2-[4-[(2-butyl-4-oxo-1,3-diazaspiro[4.4]non-1-en-3-yl)methyl]-2-(ethoxymethyl)phenyl]-N-(4-bromo-5-methyl-isoxazol-3-yl)benzsulfamide]
- IC50 [1]: 16.7 µM
- IC50 [2]: > 100 µM
- IC50 [3]: > 100 µM
- IC50 [4]: > 100 µM
